From patent US9884851B2, “Heterocycle-bisamide inhibitors of scavenger receptor BI” (THE BROAD INSTITUTE, INC., priority 2012, dated 2018)

What was measured:
[1] = target: T1, purified SR-BI (mSR-BI-t1) (Mus musculus, UniProt Q61009); test: Lipid transport assay in liposomes; assay type: biochemical, murine; conditions: [3H]CE uptake into SR-BI liposomes
T1 construct: made in house; host or cells: HEK293S GnTI-defective cells, tetracycline-inducible promoter
T1 sequence (Q61009 1-509): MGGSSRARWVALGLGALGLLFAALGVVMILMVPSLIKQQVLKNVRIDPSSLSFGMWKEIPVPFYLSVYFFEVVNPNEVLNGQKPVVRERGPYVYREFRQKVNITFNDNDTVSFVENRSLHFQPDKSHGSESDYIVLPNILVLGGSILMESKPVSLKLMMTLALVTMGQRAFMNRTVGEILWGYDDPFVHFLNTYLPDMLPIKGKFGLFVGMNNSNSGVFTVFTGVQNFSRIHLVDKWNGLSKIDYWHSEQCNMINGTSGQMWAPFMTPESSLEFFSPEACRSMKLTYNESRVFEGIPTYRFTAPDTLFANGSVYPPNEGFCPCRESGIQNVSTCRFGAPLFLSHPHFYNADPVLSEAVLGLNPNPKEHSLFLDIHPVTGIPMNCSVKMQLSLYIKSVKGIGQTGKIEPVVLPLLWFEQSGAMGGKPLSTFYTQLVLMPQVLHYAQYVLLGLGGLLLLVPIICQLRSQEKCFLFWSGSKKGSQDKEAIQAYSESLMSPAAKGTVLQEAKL
Excerpt: This assay provides confirmation of activity via SR-BI by measuring the uptake of [^3H]cholesteryl ester ([^3H]CE) into liposomes loaded with purified SR-BI. For the purification of C-terminally epitope-tagged murine SR-BI (mSR-BI-t1) with uniform, truncated N-linked oligosaccharide chains, we overexpressed mSR-BI-t1 in HEK293S cells. The mSR-BI-t1 was expressed in an N-acetylglucosaminyltransferase I (GnTI)-defective HEK293S derivative, HEK293S GnTI (2), which generates a glycoprotein with uniform, truncated N-linked oligosaccharide chains under the control of a tetracycline-inducible promoter. mSR-BI-t1 was immunoaffinity purified to virtual homogeneity, and the detergent-solubilized receptor was reconstituted into liposomes. Subsequently, the in vitro SR-BI-mediated selective uptake of [^3H]CE from [^3H]CE-HDL in the reconstituted liposomes was measured. […] Briefly, 20 μg of SR-BI (or an equivalent volume of protein-free buffer to generate control liposomes that are devoid of SR-BI) was reconstituted into liposomes by acetone precipitation. […] Incubation was continued for 4 hours at 37° C., and then selective uptake of [^3H]CE into liposomes was determined using the previously described filter binding assays (15). SR-BI-selective uptake values were determined.

[2] = Cell cytotoxicity assay (CellTiter-Glo); conditions: Chinese hamster, ldlA[mSR-BI] cells
Procedure: It is possible that a compound will cause cells to decrease HDL-mediated DiI uptake due to nonspecific consequences of cellular toxicity, representing a second class of false positive hits. The cells were treated with compounds for 3 hours or 24 hours, and then cell viability was measured using the CellTiter-Glo Assay (Promega), a luciferase-based reagent that measures cellular ATP levels. The compounds were tested at different concentrations to determine IC50 values. […] Data were normalized against DMSO and the positive control (1 μM BLT-1) in Genedata Assay Analyzer.
All available dry powder samples of the remaining, non-quenching compounds were procured from commercial sources and purities were determined. The compounds obtained were then retested in the primary assay and in cytotoxicity assays. We wanted to rule out any compounds that were cytotoxic, especially in the 3-hour time span of the primary DiI-HDL uptake assay. Therefore, compounds were tested in ldl[mSR-BI] cells for cytotoxicity at 3 hours and 24 hours using the CellTiter-Glo assay (Promega) that measures cellular ATP as a marker of cell viability. […] Compounds were screened for inhibition of endocytosis using labeled transferrin, which is known to bind the transferrin receptor, enter cells by clathrin-mediated endocytosis, and move to endosomes before being recycled to the cell surface.

Stability to GSH = assay type: physicochemical
Excerpt: Probe 2 (ML279) can potentially act as an electrophile under biological conditions, with its tetrazole alpha to the western amide.

Plasma protein binding = assay type: in vitro ADME; conditions: human plasma; read-out: plasma protein binding (PPB), bound (converted)
ldlA7 cells = test: DiI-HDL uptake assay in the absence of SR-BI (ldlA7 counterscreen); assay type: cell-based, Chinese hamster; conditions: Cricetulus griseus; parental cells not overexpressing SR-BI
Procedure: DiI-HDL Uptake Assay in the Absence of SR-BI (SA 7: AID No. 588825)
In the primary assay, the cell line used to measure DiI-HDL uptake lacks the LDL receptor and overexpresses SR-BI. […] As in the primary assay, 10 μg protein/ml of DiI-HDL was used to measure DiI uptake into the cells after 3 hours of incubation with different concentrations of compound.

SR-BI = target: T2, SR-BI (Mus musculus, UniProt Q61009); test: HDL binding assay (Alexa 488 HDL); assay type: cell-based, murine; design: expressed in transfected cells; host or cells: ldlA[mSR-BI], Chinese hamster ovary (CHO) cells lacking LDL receptor (Krieger Laboratory)
T2 sequence (Q61009 1-509): T1 sequence (Q61009 1-509)
Procedure: HDL binding was assessed using Alexa Fluor 488-labeled HDL particles. For this assay, the Alexa 488 dye was directly covalently bound to apolipoprotein components of the HDL particle via primary amines; thus, no transfer of the fluorophore to cell membranes occurs. Instead, direct binding of the HDL particles to SR-BI can be measured. As a positive control, BLT-1, which is known to increase binding, was used at 1 μM. It is possible that a compound can reduce binding of HDL to the receptor, and this would lead to a decrease in signal. This assay is used to characterize the mechanism of action of a particular compound; therefore, any outcome in the assay is acceptable. Data were normalized against DMSO and the positive control (1 μM BLT-1) in Genedata Assay Analyzer.

Stability in PBS = assay type: physicochemical; conditions: 1% DMSO, over 48 hours
Procedure: We noticed that the concentration of the probe fluctuated through the course of the assay (data not shown). We believe that this fluctuation is due to the low kinetic solubility of the probe. Thus, we decided to determine the amount of undissolved probe present in the well after it was treated with PBS for a given length of time, relative to the amount of undissolved probe at the start of the assay. The wells were centrifuged and the supernatant was removed after various time points, then acetonitrile was added to dissolve the remaining solid in the wells, and the amount of probe was quantified. […] The stability of the probe was confirmed by measuring stability in human plasma, with >99% remaining after a 5-hour incubation period. […] FIG. 5 summarizes known properties of the probe.

SMILES: C[C@H](C(=O)NC1CCCC1)N(C(=O)Cn1nnc(-c2ccc3c(c2)OCO3)n1)C1CCCCC1 [ML279, (R)-2-(2-(5-(Benzo[d][1,3]dioxol-5-yl)-2H-tetrazol-2-yl)-N-cyclohexylacetamido)-N-cyclopentylpropanamide]
- interaction with SR-BI in purified liposomes (in words) [1]: direct interaction between the probe and SR-BI
- EC50 at 24 h [2]: > 35 µM
- IC50 at 24 h [2]: > 35 µM
- stability to GSH (in words) (Stability to GSH): stable to GSH
- fraction unbound (Plasma protein binding): 0.235
- IC50 (ldlA7 cells): > 35 µM
- AC50 (SR-BI; Alexa Fluor 488-labeled HDL): 270 nM
- effect on binding of HDL to SR-BI (in words) (SR-BI; Alexa-488 labeled HDL): increases binding of HDL to the receptor
- stability in PBS (in words) (Stability in PBS): stable to PBS
